Results on 27 compounds are retold here after patent publication US12319684B2 (Sanford Burnham Prebys Medical Discovery Institute, priority 2014, dated 2025).

Where two headings read alike, the source gives them in different places.

For the test, the target named is T1, human apelin receptor (APJ, AGTRL-1, APLNR) (Homo sapiens, UniProt P35414).
T1 construct: host or cells: Chinese hamster ovary cells
T1 sequence (P35414 1-380): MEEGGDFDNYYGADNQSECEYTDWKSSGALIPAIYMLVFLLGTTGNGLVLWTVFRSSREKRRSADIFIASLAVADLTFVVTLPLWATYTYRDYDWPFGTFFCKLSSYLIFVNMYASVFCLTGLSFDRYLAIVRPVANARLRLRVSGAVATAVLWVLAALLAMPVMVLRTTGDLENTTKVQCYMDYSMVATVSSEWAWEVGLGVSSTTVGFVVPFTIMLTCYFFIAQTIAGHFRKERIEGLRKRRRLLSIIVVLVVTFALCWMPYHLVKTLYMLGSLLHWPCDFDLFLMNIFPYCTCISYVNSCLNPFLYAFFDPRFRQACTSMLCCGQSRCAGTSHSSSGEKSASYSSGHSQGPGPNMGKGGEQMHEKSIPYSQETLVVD
Kind of test: APJ cAMP cell-based assay (forskolin-stimulated CHO cells, enzyme fragment complementation). The following applies: for Emax: CHO, 0.5 h, read-out: APJ cAMP % resp (efficacy). Here is the method: The assays disclosed herein were performed using cell lines from DiscoveRx, Inc.
Biological activity was determined in a cell-based assay. This assay detects activation of the receptor by reporting on intracellular cyclic adenosine monophosphate (cAMP) level. Chinese hamster ovary cells engineered to express a stably integrated human apelin receptor (APJ, AGTRL-1, APLNR), were plated into the wells of a microtiter plate. Cells were stimulated with forskolin to increase intracellular cAMP. Immediately following, compounds were added at a range of final concentrations 0.0-100 μM, in DMSO (not to exceed a final DMSO concentration of >1% v/v), and allowed to incubate with the cells for 0.5 h. At the end of the incubation, cells were lysed to stop APJ signaling, and cAMP was quantified using a commercially available assay kit that applies enzyme fragment complementation technology and bioluminescence, in a competitive ELISA format.
Compound efficacy (% resp) is reported as a percentage of the maximal apelin-13 response at 1 nM (control).

Setting [1] is: CHO cells expressing human APJ, forskolin-stimulated, 0.5 h incubation, 50% of control (apelin-13, 1 nM) response, read-out: APJ cAMP EC50.
[2] abbreviates: percentage of the maximal apelin-13 response at 1 nM (control).

Turning to `COc1ccccc1-n1c(SCc2nc(=O)c3ccccc3[nH]2)nnc1-c1cccs1` [Example 52, 2-[4-(2-Methoxy-phenyl)-5-thiophen-2-yl-4H-[1,2,4]triazol-3-ylsulfanylmethyl]-1H-quinazolin-4-one], the 50% effective concentration (EC50) amounted to 240 nM and the Emax is 113%.
`COc1ccccc1-n1c(SCc2nc3cc(C)ccc3c(=O)[nH]2)nnc1-c1cccs1` [Example 53, 2-(((4-(2-methoxyphenyl)-5-(thiophen-2-yl)-4H-1,2,4-triazol-3-yl)thio)methyl)-7-methylquinazolin-4(3H)-one]: the EC50 under setting [1] came out at 1030 nM. Also, under setting [2], the Emax was determined as 59%.
Regarding `COc1ccccc1-n1c(SCc2nc(=O)c3cc(C#N)ccc3[nH]2)nnc1-c1cccs1` [Example 54, 2-[4-(2-Methoxy-phenyl)-5-thiophen-2-yl-4H-[1,2,4]triazol-3-ylsulfanylmethyl]-4-oxo-1,4-dihydro-quinazoline-6-carbonitrile], the EC50 under setting [1] was found to be 31.3 nM. Further, the Emax under setting [2] is 118%.
As for `COc1ccccc1-n1c(SCc2nc(=O)c3cc(F)ccc3[nH]2)nnc1-c1cccs1` [Example 55, 6-Fluoro-2-[4-(2-methoxy-phenyl)-5-thiophen-2-yl-4H-[1,2,4]triazol-3-ylsulfanylmethyl]-1H-quinazolin-4-one], under setting [1], the EC50 came out at 9 nM. In addition, the Emax under setting [2] amounted to 109%.
Regarding `COc1ccccc1-n1c(SCc2nc(=O)c3c(F)cccc3[nH]2)nnc1-c1cccs1` [Example 56, 5-Fluoro-2-[4-(2-methoxy-phenyl)-5-thiophen-2-yl-4H-[1,2,4]triazol-3-ylsulfanylmethyl]-1H-quinazolin-4-one], the EC50 under setting [1] worked out at 8620 nM. Besides, the Emax under setting [2] was found to be 107%.
Turning to `COc1ccccc1-n1c(SCc2nc(=O)c3cccc(F)c3[nH]2)nnc1-c1cccs1` [Example 57, 8-Fluoro-2-[4-(2-methoxy-phenyl)-5-thiophen-2-yl-4H-[1,2,4]triazol-3-ylsulfanylmethyl]-1H-quinazolin-4-one], the Emax was 106%. The EC50 under setting [1] turned out to be 140 nM.
Take `COc1ccccc1-n1c(SCc2nc(=O)c3cccc(C)c3[nH]2)nnc1-c1cccs1` [Example 58, 2-[4-(2-Methoxy-phenyl)-5-thiophen-2-yl-4H-[1,2,4]triazol-3-ylsulfanylmethyl]-8-methyl-1H-quinazolin-4-one]: the EC50 under setting [1] is 547 nM. Moreover, the Emax under setting [2] turned out to be 134%.
Turning to `COc1ccccc1-n1c(SCc2nc(=O)c3cc(C)ccc3[nH]2)nnc1-c1cccs1` [Example 59, 2-[4-(2-Methoxy-phenyl)-5-thiophen-2-yl-4H-[1,2,4]triazol-3-ylsulfanylmethyl]-6-methyl-1H-quinazolin-4-one], the EC50 under setting [1] is 42 nM. The Emax under setting [2] worked out at 121%.
With `COc1ccccc1-n1c(SCc2nc(=O)c3ccc(C(F)(F)F)cc3[nH]2)nnc1-c1cccs1` [Example 60, 2-[4-(2-Methoxy-phenyl)-5-thiophen-2-yl-4H-[1,2,4]triazol-3-ylsulfanylmethyl]-7-trifluoromethyl-1H-quinazolin-4-one], under setting [1], the EC50 worked out at 569 nM. Besides, under setting [2], the Emax is 160%.
The like results for `COc1ccccc1-n1c(SCc2nc(=O)c3cc(Br)ccc3[nH]2)nnc1-c1cccs1` [Example 61, 6-Bromo-2-[4-(2-methoxy-phenyl)-5-thiophen-2-yl-4H-[1,2,4]triazol-3-ylsulfanylmethyl]-1H-quinazolin-4-one] were, in that order, 31.5 nM and 80%.
In the case of `COc1ccccc1-n1c(SCc2nc(=O)c3cc(Cl)ccc3[nH]2)nnc1-c1cccs1` [Example 62, 6-Chloro-2-[4-(2-methoxy-phenyl)-5-thiophen-2-yl-4H-[1,2,4]triazol-3-ylsulfanylmethyl]-1H-quinazolin-4-one], under setting [1], the EC50 was 53.6 nM. The Emax under setting [2] turned out to be 116%.
In the case of `COc1ccccc1-n1c(SCc2nc(=O)c3ccc(F)cc3[nH]2)nnc1-c1cccs1` [Example 63, 7-Fluoro-2-[4-(2-methoxy-phenyl)-5-thiophen-2-yl-4H-[1,2,4]triazol-3-ylsulfanylmethyl]-1H-quinazolin-4-one], the concentration giving a half-maximal response (EC50) under setting [1] was 125 nM. Moreover, the Emax under setting [2] came to 108%.
Regarding `COc1ccccc1-n1c(SCc2nc(=O)c3cc(C(F)(F)F)ccc3[nH]2)nnc1-c1cccs1` [Example 64, 2-[4-(2-Methoxy-phenyl)-5-thiophen-2-yl-4H-[1,2,4]triazol-3-ylsulfanylmethyl]-6-trifluoromethyl-1H-quinazolin-4-one], the EC50 under setting [1] was 365 nM. The Emax under setting [2] came out at 92%.
`COc1ccc2[nH]c(CSc3nnc(-c4cccs4)n3-c3ccccc3OC)nc(=O)c2c1` [Example 65, 6-Methoxy-2-[4-(2-methoxy-phenyl)-5-thiophen-2-yl-4H-[1,2,4]triazol-3-ylsulfanylmethyl]-1H-quinazolin-4-one]: the EC50 under setting [1] was 304 nM. Also, the Emax under setting [2] amounted to 101%.
For the compound `COc1ccccc1-n1c(SCc2nc(=O)c3ccc(Cl)cc3[nH]2)nnc1-c1cccs1` [Example 66, 7-Chloro-2-[4-(2-methoxy-phenyl)-5-thiophen-2-yl-4H-[1,2,4]triazol-3-ylsulfanylmethyl]-1H-quinazolin-4-one], the concentration for a half-maximal effect (EC50) under setting [1] stood at 482 nM. For the same compound, the Emax under setting [2] was 87%.
For the compound `COc1ccccc1-n1c(SCc2ccc3ccccc3n2)nnc1-c1cccs1` [Example 68, 2-[4-(2-Methoxy-phenyl)-5-thiophen-2-yl-4H-[1,2,4]triazol-3-ylsulfanylmethyl]-quinoline], the EC50 under setting [1] was determined as 211 nM. Further, the Emax under setting [2] turned out to be 79%.
Take `COc1ccccc1-n1c(SCc2nc(=O)c3cc(OC(F)(F)F)ccc3[nH]2)nnc1-c1cccs1` [Example 69, 2-[4-(2-Methoxy-phenyl)-5-thiophen-2-yl-4H-[1,2,4]triazol-3-ylsulfanylmethyl]-6-trifluoromethoxy-1H-quinazolin-4-one]: the Emax amounted to 59%. The concentration for a half-maximal effect (EC50) under setting [1] stood at 1370 nM.
For the compound `COc1ccccc1-n1c(SCc2ccc(Cl)cc2)nnc1-c1cccs1` [Example 70, 3-(4-Chloro-benzylsulfanyl)-4-(2-methoxy-phenyl)-5-thiophen-2-yl-4H-[1,2,4]triazole], under setting [1], the EC50 was found to be 2030 nM. In addition, the Emax under setting [2] is 134%.
The like results for `COc1ccccc1-n1c(SCc2ccc(Cl)c(Cl)c2)nnc1-c1cccs1` [Example 71, 3-(3,4-Dichloro-benzylsulfanyl)-4-(2-methoxy-phenyl)-5-thiophen-2-yl-4H-[1,2,4]triazole] were, in that order, 1220 nM and 99%.
Turning to `COc1ccccc1-n1c(SCc2ccc([N+](=O)[O-])cc2)nnc1-c1cccs1` [Example 72, 4-(2-Methoxy-phenyl)-3-(4-nitro-benzylsulfanyl)-5-thiophen-2-yl-4H-[1,2,4]triazole], the EC50 under setting [1] amounted to 140 nM. For the same compound, under setting [2], the Emax worked out at 106%.
On the same counts, the results for `COc1ccccc1-n1c(SCc2cccc(F)c2)nnc1-c1cccs1` [Example 73, 3-(3-Fluoro-benzylsulfanyl)-4-(2-methoxy-phenyl)-5-thiophen-2-yl-4H-[1,2,4]triazole] are 10200 nM and 166%.
With `COc1ccccc1-n1c(SCc2ccccc2F)nnc1-c1cccs1` [Example 74, 3-(2-Fluoro-benzylsulfanyl)-4-(2-methoxy-phenyl)-5-thiophen-2-yl-4H-[1,2,4]triazole], the EC50 under setting [1] is 15000 nM. Under setting [2], the Emax came to 80%.
The like results for `COc1ccccc1-n1c(SCc2ccc(C)cc2)nnc1-c1cccs1` [Example 75, 4-(2-Methoxy-phenyl)-3-(4-methyl-benzylsulfanyl)-5-thiophen-2-yl-4H-[1,2,4]triazole] were, in that order, 2740 nM and 70%.
Regarding `COc1ccccc1-n1c(SCc2cccc(C)c2)nnc1-c1cccs1` [Example 76, 4-(2-Methoxy-phenyl)-3-(3-methyl-benzylsulfanyl)-5-thiophen-2-yl-4H-[1,2,4]triazole], under setting [1], the EC50 was 11300 nM. Further, the Emax under setting [2] amounted to 159%.
The like results for `COc1ccccc1-n1c(SCc2cc(F)cc(F)c2)nnc1-c1cccs1` [Example 77, 3-(3,5-Difluoro-benzylsulfanyl)-4-(2-methoxy-phenyl)-5-thiophen-2-yl-4H-[1,2,4]triazole] were, in that order, 8440 nM and 111%.
As for `COc1ccccc1-n1c(SCc2ccncn2)nnc1-c1cccs1` [Example 78, 4-[4-(2-Methoxy-phenyl)-5-thiophen-2-yl-4H-[1,2,4]triazol-3-ylsulfanylmethyl]-pyrimidine], the EC50 was greater than 10000 nM and the Emax stood at 50%.
Turning to `COc1ccccc1-n1c(-c2cccs2)cnc1SCc1cc(=O)n2cc(C)ccc2n1` [Example 79, 2-[1-(2-Methoxy-phenyl)-5-thiophen-2-yl-1H-imidazol-2-ylsulfanylmethyl]-7-methyl-pyrido[1,2-a]pyrimidin-4-one], the Emax stood at 54%. The EC50 under setting [1] amounted to 1920 nM.
